Source: PMC9785230, “Glutamine Synthetase Contributes to the Regulation of Growth, Conidiation, Sclerotia Development, and Resistance to Oxidative Stress in the Fungus Aspergillus flavus” (Toxins, 2022)

Molecular target: T1, glutamine synthetase AflGsA (recombinant rAflGsA) (Aspergillus flavus, UniProt A0A7U2MSK3)
T1 construct: gene F9C07_2280198; 6× His-rAflGsA, AflgsA cDNA cloned into pET-28a, expressed in E. coli BL21 (DE3)
T1 sequence (A0A7U2MSK3 1-357): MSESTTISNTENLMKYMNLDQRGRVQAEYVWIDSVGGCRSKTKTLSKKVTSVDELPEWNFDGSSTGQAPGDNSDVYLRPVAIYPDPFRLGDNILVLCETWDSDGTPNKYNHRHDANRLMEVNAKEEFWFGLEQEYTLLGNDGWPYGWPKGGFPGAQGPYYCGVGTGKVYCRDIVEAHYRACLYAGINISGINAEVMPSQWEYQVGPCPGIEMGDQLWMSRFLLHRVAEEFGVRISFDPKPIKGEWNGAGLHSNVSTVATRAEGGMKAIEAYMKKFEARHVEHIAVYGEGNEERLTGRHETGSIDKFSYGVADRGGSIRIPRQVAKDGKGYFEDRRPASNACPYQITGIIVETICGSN
Assay: glutamine synthetase activity assay at […] nm with purified recombinant enzyme, IC50 curve
Assay type: biochemical

- IC50: 288 µM
Compound: N[C@@H](CCCC(=O)O)C(=O)O [L-α-aminoadipic acid]
